Assay results: US10718782B2, “Method of evaluating cellulite and method of evaluating cellulite-effective drug using fibulin-3 and/or sarcoglycan gamma as an indicator” (Shiseido Company, Ltd., priority 2012, dated 2020)

Columns and labels:
sarcoglycan gamma = experiment: Addition of known cellulite-improving drugs to cultured fibroblasts, sarcoglycan gamma expression by quantitative PCR; type: cell-based; conditions: fibroblasts derived from human skin tissue, serum-free medium, 24 hours; conjugated linoleic acid 0.001% and 0.01% v/v, nicotinamide 0.0005% and 0.005% v/v; mRNA vs control
Procedure: (§1) Quantitative RT-PCR was carried out by using synthesized cDNA as the template, and further by using a reaction reagent LightCycler (registered trademark) FastStart DNA MasterPlus SYBR Green (Roche), and a reaction instrument LightCycler (Roche) or AB 7900 HT Fast Real-Time PCR System (Applied Biosystems). The condition for composition was as described in Roche's protocol. The annealing temperature of the primers was set at 60° C., and quantitated by using ΔΔCt method.
(§2) Fibroblasts derived from human skin tissue were plated in a 24-well type I collagen-coated dish (IWAKI), and cultured to 70-80% confluence in a 10% bovine fetal serum-supplemented DMEM (Gibco/Invitrogen) under the condition of 37° C. and 5% CO2. After replacing with a serum-free medium for half a day, it was further replaced with a serum-free medium with varying concentrations of conjugated linoleic acid (Sigma) (0.001% v/v, 0.01% v/v) or nicotinamide (Sigma) (0.0005% v/v, 0.005% v/v). 24 hours later, RNA was recovered by using RNeasy mini kit (Qiagen) according to Qiagen's protocol. As a control, RNA prepared and recovered by substituting the medium with an intact serum-free medium, and recovering RNA 24 hours later was used. The concentration of the recovered RNA was determined using a nucleic acid quantitation instrument Nanodrop (Thermo Scientific). […]

fibulin-3 = experiment: Addition of known cellulite-improving drugs to cultured fibroblasts, fibulin-3 expression by quantitative PCR; type: cell-based; conditions: fibroblasts derived from human skin tissue, serum-free medium, 24 hours; conjugated linoleic acid 0.001% and 0.01% v/v, nicotinamide 0.0005% and 0.005% v/v; mRNA vs control
Procedure: as §1, §2

cellulite = conditions: applied on the affected cellulite site; Patent Literature 1 and 2, Non-patent Literature 8; cited from earlier work

Row | Compound | expression of sarcoglycan gamma (sarcoglycan gamma) | expression of fibulin-3 (fibulin-3) | alleviation of cellulite (cellulite)
1 | NC(=O)c1cccnc1 [nicotinamide] | enhanced the expression of fibulin-3 and sarcoglycan in a dose-dependent manner | enhanced the expression of fibulin-3 and sarcoglycan in a dose-dependent manner | alleviate cellulite
2 | conjugated linoleic acid | enhanced the expression of fibulin-3 and sarcoglycan in a dose-dependent manner | enhanced the expression of fibulin-3 and sarcoglycan in a dose-dependent manner | alleviate cellulite
3 | sulfocarbiose |  |  | alleviate cellulite
